Experimental data taken from US20150328250A1, “Animal Food Composition and Method” (HILL'S PET NUTRITION, INC., priority 2012, published 2015).

Assays:
[1] = Chitosan-controlled release of zinc through dialysis tubing, dialysate zinc measured by ICP-OES; assay type: physicochemical
Method: (§1) The chitosan-controlled release of zinc was investigated. 0.1% solutions of chitosan were prepared. Zinc acetate was added to each of these solutions to provide a zinc ion concentration of 100 ppm or 200 ppm. The pH of the solutions was adjusted to 2, 5 or 7. Each solution was left at room temperature for 72 hours while gently mixing to allow for complete chitosan dissolution. Solutions containing zinc alone acted as controls for the experiment.
(§2) Each solution was subsequently transferred to dialysis tubing and placed in a jar containing deionized water. Stirring was carried out continuously throughout the duration of dialysis. Evaporative loss was minimized by placing a sealing wrap over the jar. A sample of the dialysate was removed at regular intervals and the zinc ion concentration was measured by inductively coupled plasma optical emission spectrometry (ICP-OES).

[2] = Amount of zinc bound to chitosan after 1 hour of dialysis; assay type: physicochemical
Method: as §1, §2
The amount of zinc bound to chitosan after 1 hour of dialysis at pH 2, 5 and 7 was also determined After 1 hour of dialysis, the amount of zinc that had been released through the dialysis tubing, in the presence and absence of chitosan, was measured as described above. The amount of zinc released in the presence of chitosan was subtracted from the amount of zinc released in the absence of chitosan to determine the amount of zinc bound to chitosan.

## CC(=O)[O-].CC(=O)[O-].[Zn+2] [Zinc, Zinc acetate]
[1]; 100 ppm Zn acetate, pH 2
  average rate of zinc release per hour: 0.54 mg/h
[1]; 100 ppm Zn acetate, pH 5
  average rate of zinc release per hour: 1.38 mg/h
[1]; 100 ppm Zn acetate, pH 7
  average rate of zinc release per hour: 0.85 mg/h
[1]; 100 ppm zinc ion, pH 2, 0.00 hrs
  Amount of Zn++ released: 0 mg
[1]; 100 ppm zinc ion, pH 2, 0.33 hrs
  Amount of Zn++ released: 0.25 ± 0.00 mg
[1]; 100 ppm zinc ion, pH 2, 0.67 hrs
  Amount of Zn++ released: 0.42 ± 0.01 mg
[1]; 100 ppm zinc ion, pH 2, 1.00 hrs
  Amount of Zn++ released: 0.52 ± 0.01 mg
[1]; 100 ppm zinc ion, pH 2, 1.33 hrs
  Amount of Zn++ released: 0.75 ± 0.01 mg
[1]; 100 ppm zinc ion, pH 2, 1.67 hrs
  Amount of Zn++ released: 0.90 ± 0.02 mg
[1]; 100 ppm zinc ion, pH 2, 2.00 hrs
  Amount of Zn++ released: 1.01 ± 0.02 mg
[1]; 100 ppm zinc ion, pH 2, 2.50 hrs
  Amount of Zn++ released: 1.40 ± 0.01 mg
[1]; 100 ppm zinc ion, pH 2, 3.00 hrs
  Amount of Zn++ released: 1.66 ± 0.02 mg
[1]; 100 ppm zinc ion, pH 5, 0.00 hrs
  Amount of Zn++ released: 0 mg
[1]; 100 ppm zinc ion, pH 5, 0.33 hrs
  Amount of Zn++ released: 0.57 ± 0.01 mg
[1]; 100 ppm zinc ion, pH 5, 0.67 hrs
  Amount of Zn++ released: 1.15 ± 0.02 mg
[1]; 100 ppm zinc ion, pH 5, 1.00 hrs
  Amount of Zn++ released: 1.68 ± 0.02 mg
[1]; 100 ppm zinc ion, pH 5, 1.33 hrs
  Amount of Zn++ released: 2.36 ± 0.07 mg
[1]; 100 ppm zinc ion, pH 5, 1.67 hrs
  Amount of Zn++ released: 2.86 ± 0.07 mg
[1]; 100 ppm zinc ion, pH 5, 2.00 hrs
  Amount of Zn++ released: 3.14 ± 0.01 mg
[1]; 100 ppm zinc ion, pH 5, 2.50 hrs
  Amount of Zn++ released: 3.69 ± 0.05 mg
[1]; 100 ppm zinc ion, pH 5, 3.00 hrs
  Amount of Zn++ released: 4.00 ± 0.00 mg
[1]; 100 ppm zinc ion, pH 7, 0.00 hrs
  Amount of Zn++ released: 0 mg
[1]; 100 ppm zinc ion, pH 7, 0.33 hrs
  Amount of Zn++ released: 0.30 ± 0.00 mg
[1]; 100 ppm zinc ion, pH 7, 0.67 hrs
  Amount of Zn++ released: 0.71 ± 0.15 mg
[1]; 100 ppm zinc ion, pH 7, 1.00 hrs
  Amount of Zn++ released: 0.82 ± 0.00 mg
[1]; 100 ppm zinc ion, pH 7, 1.33 hrs
  Amount of Zn++ released: 1.11 ± 0.00 mg
[1]; 100 ppm zinc ion, pH 7, 1.67 hrs
  Amount of Zn++ released: 1.40 ± 0.01 mg
[1]; 100 ppm zinc ion, pH 7, 2.00 hrs
  Amount of Zn++ released: 1.78 ± 0.25 mg
[1]; 200 ppm Zn acetate, pH 2
  average rate of zinc release per hour: 1.58 mg/h
[1]; 200 ppm Zn acetate, pH 5
  average rate of zinc release per hour: 2.07 mg/h
[1]; 200 ppm Zn acetate, pH 7
  average rate of zinc release per hour: 1.47 mg/h
[1]; 200 ppm zinc ion, pH 2, 0.00 hrs
  Amount of Zn++ released: 0 mg
[1]; 200 ppm zinc ion, pH 2, 0.33 hrs
  Amount of Zn++ released: 0.52 ± 0.00 mg
[1]; 200 ppm zinc ion, pH 2, 0.67 hrs
  Amount of Zn++ released: 1.07 ± 0.00 mg
[1]; 200 ppm zinc ion, pH 2, 1.00 hrs
  Amount of Zn++ released: 1.77 ± 0.07 mg
[1]; 200 ppm zinc ion, pH 2, 1.33 hrs
  Amount of Zn++ released: 2.36 ± 0.01 mg
[1]; 200 ppm zinc ion, pH 2, 1.67 hrs
  Amount of Zn++ released: 2.90 ± 0.01 mg
[1]; 200 ppm zinc ion, pH 2, 2.00 hrs
  Amount of Zn++ released: 3.40 ± 0.05 mg
[1]; 200 ppm zinc ion, pH 2, 2.50 hrs
  Amount of Zn++ released: 4.09 ± 0.01 mg
[1]; 200 ppm zinc ion, pH 2, 3.00 hrs
  Amount of Zn++ released: 4.59 ± 0.00 mg
[1]; 200 ppm zinc ion, pH 5, 0.00 hrs
  Amount of Zn++ released: 0 mg
[1]; 200 ppm zinc ion, pH 5, 0.33 hrs
  Amount of Zn++ released: 0.99 ± 0.00 mg
[1]; 200 ppm zinc ion, pH 5, 0.67 hrs
  Amount of Zn++ released: 1.91 ± 0.02 mg
[1]; 200 ppm zinc ion, pH 5, 1.00 hrs
  Amount of Zn++ released: 2.73 ± 0.00 mg
[1]; 200 ppm zinc ion, pH 5, 1.33 hrs
  Amount of Zn++ released: 3.61 ± 0.00 mg
[1]; 200 ppm zinc ion, pH 5, 1.67 hrs
  Amount of Zn++ released: 4.25 ± 0.01 mg
[1]; 200 ppm zinc ion, pH 5, 2.00 hrs
  Amount of Zn++ released: 4.85 ± 0.02 mg
[1]; 200 ppm zinc ion, pH 5, 2.50 hrs
  Amount of Zn++ released: 5.59 ± 0.01 mg
[1]; 200 ppm zinc ion, pH 5, 3.00 hrs
  Amount of Zn++ released: 6.13 ± 0.03 mg
[1]; 200 ppm zinc ion, pH 7, 0.00 hrs
  Amount of Zn++ released: 0 mg
[1]; 200 ppm zinc ion, pH 7, 0.33 hrs
  Amount of Zn++ released: 0.630 ± 0.00 mg
[1]; 200 ppm zinc ion, pH 7, 0.67 hrs
  Amount of Zn++ released: 1.21 ± 0.01 mg
[1]; 200 ppm zinc ion, pH 7, 1.00 hrs
  Amount of Zn++ released: 1.76 ± 0.01 mg
[1]; 200 ppm zinc ion, pH 7, 1.33 hrs
  Amount of Zn++ released: 2.36 ± 0.02 mg
[1]; 200 ppm zinc ion, pH 7, 1.67 hrs
  Amount of Zn++ released: 2.88 ± 0.02 mg
[1]; 200 ppm zinc ion, pH 7, 2.00 hrs
  Amount of Zn++ released: 3.25 ± 0.04 mg
[2]; 100 ppm pH 2, after 1 hour of dialysis
  Zn++ released through the dialysis tubing: 0.57 mg
[2]; 100 ppm pH 5, after 1 hour of dialysis
  Zn++ released through the dialysis tubing: 1.62 mg
[2]; 100 ppm pH 7, after 1 hour of dialysis
  Zn++ released through the dialysis tubing: 0.87 mg
[2]; 200 ppm pH 2, after 1 hour of dialysis
  Zn++ released through the dialysis tubing: 1.68 mg
[2]; 200 ppm pH 5, after 1 hour of dialysis
  Zn++ released through the dialysis tubing: 2.54 mg
[2]; 200 ppm pH 7, after 1 hour of dialysis
  Zn++ released through the dialysis tubing: 1.68 mg
